Source: ChEMBL document CHEMBL1201862, “PubChem BioAssay data set” (2004)
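Cultured in 96-well plates, cells were exposed to test compound for 48 hours across five concentrations. At the GI50, growth is halved.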 Active and inactive are the calls of the source. Rule as the data show it: active = GI50 up to about 1.1 µM and inactive = higher.

How the values were obtained:
Assay in all cases: growth of human tumour cells (NCI), 48 h
OVCAR-8 = test system: OVCAR-8
MDA-MB-435 = test system: MDA-MB-435
PC-3 = test system: PC-3
BT-549 = test system: BT-549
Hs-578T = test system: Hs-578T
TK-10 = test system: TK-10
HCT-116 = test system: HCT-116
K562 = test system: K562
NCI-H23 = test system: NCI-H23
RXF 393 = test system: RXF 393
OVCAR-4 = test system: OVCAR-4
SF-268 = test system: SF-268
UO-31 = test system: UO-31
SK-MEL-5 = test system: SK-MEL-5
SNB-19 = test system: SNB-19
NCI-H226 = test system: NCI-H226
SN12C = test system: SN12C
MDA-N = test system: MDA-N
T47D = test system: T47D
MOLT-4 = test system: MOLT-4
HCC 2998 = test system: HCC 2998
RPMI-8226 = test system: RPMI-8226
SNB-75 = test system: SNB-75
HOP-92 = test system: HOP-92
SF-539 = test system: SF-539
DU-145 = test system: DU-145
IGROV-1 = test system: IGROV-1
A498 = test system: A498
A549 = test system: A549
NCI-H522 = test system: NCI-H522
MCF7 = test system: MCF7
SK-MEL-28 = test system: SK-MEL-28
SK-OV-3 = test system: SK-OV-3
Malme-3M = test system: Malme-3M
ACHN = test system: ACHN
EKVX = test system: EKVX
OVCAR-5 = test system: OVCAR-5
KM12 = test system: KM12
SR = test system: SR
HCT-15 = test system: HCT-15
NCI-H460 = test system: NCI-H460
OVCAR-3 = test system: OVCAR-3
CCRF-CEM = test system: CCRF-CEM
HL-60 = test system: HL-60
SK-MEL-2 = test system: SK-MEL-2
786-0 = test system: 786-0
UACC-257 = test system: UACC-257
HT-29 = test system: HT-29
NCI/ADR-RES = test system: NCI/ADR-RES
SW-620 = test system: SW-620
CAKI-1 = test system: CAKI-1
MDA-MB-231 = test system: MDA-MB-231
HOP-62 = test system: HOP-62
U-251 = test system: U-251
SF-295 = test system: SF-295
UACC-62 = test system: UACC-62
COLO 205 = test system: COLO 205
M14 = test system: M14
LOX IMVI = test system: LOX IMVI

Structure (SMILES): C=CC[C@]12C[C@@H](C(=O)OC)N(C(=O)OC)[C@H]1N(S(=O)(=O)c1ccccc1)c1ccccc12
- GI50 (OVCAR-8): > 100 µM (inactive)
- GI50 (MDA-MB-435): 28.2 µM (inactive)
- GI50 (PC-3): 34.6 µM (inactive)
- GI50 (BT-549): > 100 µM (inactive)
- GI50 (Hs-578T): 42.9 µM (inactive)
- GI50 (TK-10): > 100 µM (inactive)
- GI50 (HCT-116): 62.2 µM (inactive)
- GI50 (K562): 41.1 µM (inactive)
- GI50 (NCI-H23): 34.1 µM (inactive)
- GI50 (RXF 393): 26 µM (inactive)
- GI50 (OVCAR-4): 47.1 µM (inactive)
- GI50 (SF-268): 78.2 µM (inactive)
- GI50 (UO-31): 56 µM (inactive)
- GI50 (SK-MEL-5): 58.5 µM (inactive)
- GI50 (SNB-19): > 100 µM (inactive)
- GI50 (NCI-H226): > 100 µM (inactive)
- GI50 (SN12C): 89.7 µM (inactive)
- GI50 (MDA-N): 41.8 µM (inactive)
- GI50 (T47D): 30.9 µM (inactive)
- GI50 (MOLT-4): 33 µM (inactive)
- GI50 (HCC 2998): 44.2 µM (inactive)
- GI50 (RPMI-8226): 44.3 µM (inactive)
- GI50 (SNB-75): 21.5 µM (inactive)
- GI50 (HOP-92): 42.6 µM (inactive)
- GI50 (SF-539): > 100 µM (inactive)
- GI50 (DU-145): 33.5 µM (inactive)
- GI50 (IGROV-1): 43.1 µM (inactive)
- GI50 (A498): 81.1 µM (inactive)
- GI50 (A549): 88.5 µM (inactive)
- GI50 (NCI-H522): 42.3 µM (inactive)
- GI50 (MCF7): 41.3 µM (inactive)
- GI50 (SK-MEL-28): > 100 µM (inactive)
- GI50 (SK-OV-3): 35.6 µM (inactive)
- GI50 (Malme-3M): 91.8 µM (inactive)
- GI50 (ACHN): 95.1 µM (inactive)
- GI50 (EKVX): 31.2 µM (inactive)
- GI50 (OVCAR-5): 31.4 µM (inactive)
- GI50 (KM12): 85.5 µM (inactive)
- GI50 (SR): 38.4 µM (inactive)
- GI50 (HCT-15): 40.1 µM
- GI50 (NCI-H460): 73.8 µM (inactive)
- GI50 (OVCAR-3): 87.9 µM (inactive)
- GI50 (CCRF-CEM): 82.6 µM (inactive)
- GI50 (HL-60): 29.6 µM (inactive)
- GI50 (SK-MEL-2): 42.3 µM (inactive)
- GI50 (786-0): > 100 µM (inactive)
- GI50 (UACC-257): 45.7 µM (inactive)
- GI50 (HT-29): > 100 µM (inactive)
- GI50 (NCI/ADR-RES): 68.2 µM (inactive)
- GI50 (SW-620): > 100 µM (inactive)
- GI50 (CAKI-1): > 100 µM (inactive)
- GI50 (MDA-MB-231): 36.2 µM (inactive)
- GI50 (HOP-62): > 100 µM (inactive)
- GI50 (U-251): 61.9 µM (inactive)

Structure (SMILES): CCCCCNC(=O)OC1CCn2c1nc1c2C(=O)C(C)=C(N2CC2)C1=O (configuration not stated)
- GI50 (OVCAR-8): 1.46 µM (inactive)
- GI50 (MDA-MB-435): 1.62 µM (inactive)
- GI50 (PC-3): 1.05 µM (active)
- GI50 (BT-549): 1.67 µM (inactive)
- GI50 (Hs-578T): 2.32 µM (inactive)
- GI50 (TK-10): 4.83 µM (inactive)
- GI50 (HCT-116): 1.24 µM (inactive)
- GI50 (K562): 1.67 µM (inactive)
- GI50 (NCI-H23): 1.24 µM (inactive)
- GI50 (RXF 393): 0.543 µM (active)
- GI50 (OVCAR-4): 1.3 µM (inactive)
- GI50 (SF-268): 0.946 µM (active)
- GI50 (UO-31): 1.83 µM (inactive)
- GI50 (SK-MEL-5): 0.568 µM (active)
- GI50 (SNB-19): 2.9 µM (inactive)
- GI50 (NCI-H226): 2 µM (inactive)
- GI50 (SN12C): 1.43 µM (inactive)
- GI50 (MDA-N): 1.5 µM (inactive)
- GI50 (T47D): 3.23 µM (inactive)
- GI50 (MOLT-4): 10.7 µM (inactive)
- GI50 (HCC 2998): 0.311 µM (active)
- GI50 (RPMI-8226): 2.4 µM (inactive)
- GI50 (SNB-75): 1.22 µM (inactive)
- GI50 (HOP-92): 21.4 µM (inactive)
- GI50 (SF-539): 2 µM (inactive)
- GI50 (DU-145): 0.351 µM (active)
- GI50 (IGROV-1): 1.37 µM (inactive)
- GI50 (A498): 1.75 µM (inactive)
- GI50 (SF-295): 1.2 µM (inactive)
- GI50 (A549): 0.526 µM (active)
- GI50 (NCI-H522): 0.769 µM (active)
- GI50 (MCF7): 0.453 µM (active)
- GI50 (SK-MEL-28): 1.41 µM (inactive)
- GI50 (Malme-3M): 2.19 µM (inactive)
- GI50 (ACHN): 0.548 µM (active)
- GI50 (UACC-62): 1.75 µM (inactive)
- GI50 (OVCAR-5): 3.05 µM (inactive)
- GI50 (KM12): 1.64 µM (inactive)
- GI50 (SR): 20.7 µM (inactive)
- GI50 (HCT-15): 1.92 µM
- GI50 (NCI-H460): 0.218 µM (active)
- GI50 (COLO 205): 1.41 µM (inactive)
- GI50 (M14): 1.45 µM (inactive)
- GI50 (OVCAR-3): 1.79 µM (inactive)
- GI50 (CCRF-CEM): 26.5 µM (inactive)
- GI50 (HL-60): 6.05 µM (inactive)
- GI50 (SK-MEL-2): 1.63 µM (inactive)
- GI50 (786-0): 0.455 µM (active)
- GI50 (UACC-257): 1.67 µM (inactive)
- GI50 (HT-29): 0.593 µM (active)
- GI50 (NCI/ADR-RES): 2.56 µM (inactive)
- GI50 (SW-620): 0.492 µM (active)
- GI50 (CAKI-1): 1.2 µM (inactive)
- GI50 (MDA-MB-231): 2.01 µM (inactive)
- GI50 (U-251): 1.67 µM (inactive)
- GI50 (LOX IMVI): 0.229 µM (active)

Structure (SMILES): COC(CC1(CCNc2ccccc2)C(=O)N(COCC[Si](C)(C)C)c2ccccc21)OC (configuration not stated)
- GI50 (OVCAR-8): 18.4 µM (inactive)
- GI50 (MDA-MB-435): 13.3 µM (inactive)
- GI50 (PC-3): 11.8 µM (inactive)
- GI50 (BT-549): 17.2 µM (inactive)
- GI50 (Hs-578T): 18 µM (inactive)
- GI50 (TK-10): 14.8 µM (inactive)
- GI50 (HCT-116): 13.9 µM (inactive)
- GI50 (K562): 8.41 µM (inactive)
- GI50 (NCI-H23): 16.5 µM (inactive)
- GI50 (RXF 393): 12.5 µM (inactive)
- GI50 (OVCAR-4): 13.6 µM (inactive)
- GI50 (SF-268): 11.6 µM (inactive)
- GI50 (UO-31): 13.9 µM (inactive)
- GI50 (SK-MEL-5): 4.97 µM (inactive)
- GI50 (SNB-19): 15.5 µM (inactive)
- GI50 (NCI-H226): 6 µM (inactive)
- GI50 (SN12C): 23.2 µM (inactive)
- GI50 (MDA-N): 24 µM (inactive)
- GI50 (T47D): 20.3 µM (inactive)
- GI50 (MOLT-4): > 43.7 µM (inactive)
- GI50 (HCC 2998): 2.11 µM (inactive)
- GI50 (RPMI-8226): 7.23 µM (inactive)
- GI50 (SNB-75): 4.46 µM (inactive)
- GI50 (HOP-92): 13.8 µM (inactive)
- GI50 (DU-145): 23.6 µM (inactive)
- GI50 (IGROV-1): 9.66 µM (inactive)
- GI50 (A498): 21.1 µM (inactive)
- GI50 (SF-295): 16.6 µM (inactive)
- GI50 (A549): 15.5 µM (inactive)
- GI50 (NCI-H522): 11.9 µM (inactive)
- GI50 (MCF7): 10.4 µM (inactive)
- GI50 (SK-MEL-28): 6.98 µM (inactive)
- GI50 (SK-OV-3): 15.2 µM (inactive)
- GI50 (ACHN): 17.9 µM (inactive)
- GI50 (UACC-62): 14.5 µM (inactive)
- GI50 (EKVX): 17.8 µM (inactive)
- GI50 (OVCAR-5): 16.6 µM (inactive)
- GI50 (KM12): 8.85 µM (inactive)
- GI50 (SR): > 32.8 µM (inactive)
- GI50 (HCT-15): 16 µM
- GI50 (NCI-H460): 15 µM (inactive)
- GI50 (COLO 205): 2.69 µM (inactive)
- GI50 (M14): 2.51 µM (inactive)
- GI50 (OVCAR-3): 15.6 µM (inactive)
- GI50 (CCRF-CEM): 15.8 µM (inactive)
- GI50 (HL-60): 4.35 µM (inactive)
- GI50 (SK-MEL-2): 15.3 µM (inactive)
- GI50 (786-0): 6.25 µM (inactive)
- GI50 (UACC-257): 11.7 µM (inactive)
- GI50 (HT-29): 16.4 µM (inactive)
- GI50 (NCI/ADR-RES): 17.1 µM (inactive)
- GI50 (SW-620): 18.9 µM (inactive)
- GI50 (CAKI-1): 26.4 µM (inactive)
- GI50 (MDA-MB-231): 19.3 µM (inactive)
- GI50 (HOP-62): 13.7 µM (inactive)
- GI50 (U-251): 18.2 µM (inactive)
- GI50 (LOX IMVI): 12.5 µM (inactive)
